Data reported in patent publication US20260297031A1, “HYDROXYLAMINE-BASED BCR-ABL1 INHIBITORS FOR TREATMENT OF CANCER” (University of Georgia Research Foundation, Inc., priority 2023, published 2026).
Like-named read-outs stand apart in the source and are kept apart here.

Assays:
[1] = target: T1, BCR-ABL1 wt (Homo sapiens, UniProt P00519); test: KinaseProfiler radiometric kinase assay, BCR-ABL1 wt; assay type: biochemical; details: [ATP] = 10 μM; mean of n = 2
T1 construct: called BCR-ABL1 in the text

[2] = Metabolic stability in rat liver microsomes; assay type: in vitro ADME; details: rat liver microsomes
Experimental: (§1) Metabolic Stability in Liver Microsomes (Independently Performed by Pharmaron Inc., Ninqbo, CN)
(§2) This experiment was carried out under two separate set of conditions: i) with Cofactors (NADPH), which consisted of adding 25 μL of 10 mM NADPH to the incubations, giving a final NADPH concentration of 1 mM, and ii) without Cofactors (NADPH), which consisted of adding 25 μL of 100 mM phosphate buffer to the incubations. Under both sets of conditions, the final concentration of microsomes were 0.5 mg/mL. […] Samples were then centrifuged at 3,220 g for 40 min and aliquots of 100 μL of the supernatant were mixed with 100 μL of ultra-pure H2O and analyzed by LC-MS/MS.
(§3) Peak areas were determined from extracted ion chromatograms. The slope value, k, was determined by linear regression of the natural logarithm of the remaining percentage of the parent drug vs incubation time curve.

[3] = Metabolic stability in human liver microsomes; assay type: in vitro ADME; details: human liver microsomes
Experimental: as §1, §2, §3

[4] = MDCKII-MDR1 permeability; details: dog, MDCK-MDR1, pH 7.4
Experimental: MDCKII-MDR1 Permeability (Independently Performed By: Pharmaron Inc., Ninqbo, CN)
To each well of the Transwell insert and reservoir were added 50 μL and 25 mL of cell culture medium, respectively.
To determine the rate of drug transport in the apical to basolateral direction, 125 μL of the working solution of either test compounds or control compounds was added to the Transwell insert (apical compartment) and a 50 μL sample was immediately transferred from the apical compartment to 200 μL of acetonitrile containing internal standard (100 nM alprazolam, 200 nM caffeine, and 100 nM tolbutamide) in a new 96-well plate as the initial donor sample (A-B). The sample was then vortexed at 1,000 rpm for 10 min. The receiver plate (basolateral compartment) wells were then filled with 235 μL transport buffer. To determine the rate of drug transport in the basolateral to apical direction, 285 μL of the working solution of either test compounds or control compounds was added to the receiver plate (basolateral compartment) wells and a 50 μL of sample was immediately transferred from the basolateral compartment to 200 μL of acetonitrile containing internal standard in a new 96-well plate as the initial donor sample (B-A). The sample was vortexed for 10 min at 1,000 rpm. The Transwell insert (apical compartment) was then filled with 75 μL of transport buffer and the apical to basolateral direction and the basolateral to apical direction were done at the same time. […] After incubation, 50 μL samples from donor sides (apical compartment for Ap→BI flux, and basolateral compartment BI→Ap) and receiver sides (basolateral compartment for Ap→BI flux, and apical compartment for BI→Ap) were transferred to wells of a new 96-well plate, followed by the addition of 200 μL acetonitrile containing internal standard. […] An aliquot of 100 μL of the supernatant was mixed with an appropriate volume of ultra-pure water before LC-MS/MS analysis.
To monitor for monolayer integrity, Lucifer yellow leakage was determined after the 2 h transport period. This began by preparing a stock solution of Lucifer yellow in DMSO and diluted with HBSS (10 mM HEPES, pH 7.4.) to reach a final concentration of 100 μM. To each Transwell insert (apical compartment) was then added 100 μL of the Lucifer yellow solution, followed by filling the wells in the receiver plate (basolateral compartment) with 300 μL of HBSS (10 mM HEPES, pH 7.4).
The efflux ratio was determined using the following equation: […]

[5] = target: T2, BCR-ABL1 T315I (Homo sapiens, UniProt P00519, T315I); test: KinaseProfiler radiometric kinase assay, BCR-ABL1 T315I; assay type: biochemical; details: [ATP] = 10 μM; mean of n = 2
T2 construct: BCR (fusion partner, as the printed name BCR-ABL1 says)

[6] = target: T3, BCR-ABL1 Y253F (Homo sapiens, UniProt P00519, Y253F); test: KinaseProfiler radiometric kinase assay, BCR-ABL1 Y253F; assay type: biochemical; details: [ATP] = 10 μM; mean of n = 2
T3 construct: BCR (fusion partner, as the printed name BCR-ABL1 says)

[7] = Metabolic stability in rat hepatocytes; assay type: in vitro ADME; details: rat hepatocytes
Experimental: (§4) All calculations were carried out using Microsoft Excel. Peak areas were determined from extracted ion chromatograms.

[8] = Metabolic stability in mouse hepatocytes; assay type: in vitro ADME; details: read-out: Remaining Percentages
Experimental: as §4

[9] = read-out: LMCIint (rate of metabolism)

| Compound | IC50 [1] | half-life at 1 µM [2] | microsomal CLint at 1 µM [2, 9] | half-life at 1 µM [3] | microsomal CLint at 1 µM [3, 9] | Papp A→B at 2 h, 1 µM [4] | Papp B→A at 2 h, 1 µM [4] | efflux ratio at 1 µM [4] | IC50 [5] | IC50 [6] | half-life [7] | hepatocyte CLint ([7]; read-out: HEPCIint (rate of metabolism)) | remaining at 0.5 min ([8]; 0.5 min) | remaining at […] ([8]; 15 min) | remaining at 0.5 h ([8]; 30 min) | remaining at 1 h ([8]; 60 min) | remaining at […] ([8]; 90 min, BLOD = below level of detection) | remaining at 2 h ([8]; 120 min, BLOD = below level of detection) |
| --- | --- | --- | --- | --- | --- | --- | --- | --- | --- | --- | --- | --- | --- | --- | --- | --- | --- | --- |
| COc1cc(Nc2c(C#N)cnc3cc(OCCON4CCN(C)CC4)c(OC)cc23)c(F)cc1Cl [Compound 15, 4-((4-chloro-2-fluoro-5-methoxyphenyl)amino)-6-methoxy-7-(2-((4-methylpiperazin-1-yl)oxy)ethoxy)quinoline-3-carbonitrile] | 1 nM | 4.9 min | 286 µL/min/mg | 4.3 min | 321 µL/min/mg | 0.7 ×10⁻⁶ cm/s | 19.3 ×10⁻⁶ cm/s | 26.5 | 166 nM | 1 nM | 12.3 min | 113 µL/min/1e6 cells | – | – | – | – | – | – |
| COc1cc(Cl)ccc1Nc1c(C#N)cnc2cc(OCCON3CCN(C)CC3)c(OC)cc12 [Compound 20, 4-((4-Chloro-2-methoxyphenyl)amino)-6-methoxy-7-(2-((4-methylpiperazin-1-yl)oxy)ethoxy)quinoline-3-carbonitrile] | – | – | – | – | – | – | – | – | – | – | – | – | 100% | 55.5% | 28.6% | 13.3% | 6.75% | 2.89% |
